Results as given in patent US20140155415A1, “BENZ[…] BENZODIOXINE COMPOUNDS THAT INTERACT WITH G[…] FOR THE TREATMENT OF DIABETES” (priority 2011, published 2014).

Experiments:
[1] = target: T1, GK-GKRP (glucokinase / glucokinase regulatory protein) (Homo sapiens, UniProt Q14397); test: GKRP LC MS/MS Biochemical Assay (LCMS/MS); settings: formation of 13C-glucose-6-phosphate from 13C-glucose by LC MS/MS, human His-hepatic GK, fructose-6-phosphate
T1 sequence (Q14397 1-625): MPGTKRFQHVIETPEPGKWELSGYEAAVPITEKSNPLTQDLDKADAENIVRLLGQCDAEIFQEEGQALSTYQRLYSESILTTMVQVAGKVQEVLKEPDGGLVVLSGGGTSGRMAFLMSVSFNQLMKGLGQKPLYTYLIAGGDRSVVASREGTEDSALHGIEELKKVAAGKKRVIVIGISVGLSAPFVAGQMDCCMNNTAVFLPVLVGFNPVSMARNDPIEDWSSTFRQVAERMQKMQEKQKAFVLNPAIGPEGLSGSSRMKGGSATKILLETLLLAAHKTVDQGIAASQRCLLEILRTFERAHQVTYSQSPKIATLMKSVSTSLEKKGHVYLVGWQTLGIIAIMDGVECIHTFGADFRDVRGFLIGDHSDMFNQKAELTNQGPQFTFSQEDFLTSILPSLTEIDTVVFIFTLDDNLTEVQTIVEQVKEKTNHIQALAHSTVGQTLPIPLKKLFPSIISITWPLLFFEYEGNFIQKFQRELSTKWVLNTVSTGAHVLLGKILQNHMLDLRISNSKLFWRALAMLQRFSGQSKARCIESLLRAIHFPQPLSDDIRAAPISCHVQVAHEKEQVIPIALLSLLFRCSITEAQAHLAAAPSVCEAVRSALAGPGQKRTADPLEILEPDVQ
Method: GKRP LC MS/MS Biochemical Assay (LCMS/MS)
This assay is used to directly measure the formation of ^13C-glucose-6-phosphate from ^13C-glucose by LC MS/MS. Begin by preparing the following solutions: Compound Buffer (CB): 50 mM Tris, pH 7.5/4 mM MgCl2/6% DMSO/fresh 10 mM DTT from 1M frozen stock. Enzyme Buffer (EB): 50 mM Tris, pH 7.5/4 mM MgCl2/6% DMSO/fresh 0.1% BSA/fresh 0.01% Brij-35 (10% BSA and 1% Brij-35 stock). GK (Glucokinase) Working Stock (5×): Dilute human His-hepatic GK to 30 nM in EB buffer. […] Seal the plate and incubate for 30 minutes at room temperature while mixing. After 30 minutes add 10 μl of GK Working Stock (5×). Re-seal the plate and incubate for another 30 minutes at room temperature while mixing. After the second 30 minutes, stop the reaction by the addition of 50 μl of 100% acetonitrile, seal, and mix for 5-10 minutes. Run 10 μl of this sample through the LC MS/MS (API 3200, Applied Biosystems, Carlsbad, Calif.). […]
(§1) In the Examples, the assays are referred to as “LCMS/MS” or “Binding.”

[2] = target: T2, GK-GKRP (interaction between glucokinase and glucokinase regulatory protein) (Homo sapiens, UniProt Q14397); test: GK-GKRP Binding Assay (Binding), AlphaScreen; settings: avi-tagged GKRP, GK-fluorescein, AlphaScreen beads, 1 μM sorbitol-6-phosphate; read-out: GK-GKRP IC50 (Binding)
T2 construct: made in house; host or cells: GKRP: baculovirus system
T2 sequence (Q14397 1-625): T1 sequence (Q14397 1-625)
Method: GK-GKRP Binding Assay Protocol (Binding)
This assay is used to directly measure the interaction between glucokinase (GK) and glucokinase regulatory protein (GKRP). Begin by preparing the following solutions. Assay Buffer: 20 mM Tris, pH 7.5/0.05% BSA/1 mM DTT/1 μM sorbitol-6-phosphate. […] Combine the following reagents in a white 96-well half area plate. Pipette 14 μl of the diluted avi-tagged GKRP into each well. Add 1 μl of compound to be tested and incubate at room temperature for 20 minutes. After 20 minutes, add 5 μl of assay buffer containing 6 nM GK-fluorescein. […] Incubate in a dark room for 2 hours at room temperature. After 2 hours read the plate using an Envision plate reader (Perkin Elmer, Waltham Mass.).
Recombinant human glucokinase (hepatic) was purified and formulated in 50 mM Tris (pH 7.5), 150 mM NaCl and 20 mM glucose previous to labeling with fluorescein. […] Unreacted dye was removed by extensive dialysis into the final formulation buffer: 25 mM Tris (pH 7.2), 150 mM NaCl, 10% glycerol and 2 mM DTT. The human glucokinase regulatory protein construct was designed with a C-terminal avitag and was expressed in a baculovirus system. Purified GKRP was incubated overnight with recombinant biotin ligase in the presence of D-biotin, ATP and MgCl2. GKRP was isolated from reaction components by chromatography on a Superdex 200 size exclusion column into: 50 mM HEPES, 150 mM NaCl and 5 mM DTT. […] Proteins were quantitated according to their calculated molar extinction coefficients at A280 and were stored at −80° C.
as §1

EC50 [1] [nM]	IC50 [2] [nM]	Structure (SMILES)
> 20000	4500	O=S(=O)(N[C@H](c1cc2ccccc2o1)c1ccccc1Br)c1ccc2c(c1)OCCCO2 (single isomer, unassigned) [Example 22 Peak #1]
3100	2300	O=S(=O)(NC(c1ccccc1)c1cc2ccccc2o1)c1ccc2c(c1)OCC(F)CO2 (racemic) [Example 35, N-(1-benzofuran-2-yl(phenyl)methyl)-3-fluoro-3,4-dihydro-2H-1,5-benzodioxepine-7-sulfonamide]
38	130	CCc1ccccc1[C@@H](NS(=O)(=O)c1ccc2c(c1)OCCCO2)c1cc2ccccc2s1 (single isomer, unassigned) [Example 37 Peak #2]
790	1000	Cc1cccc(F)c1C(NS(=O)(=O)c1ccc2c(c1)OCCCO2)c1cc2ccccc2o1 (racemic) [Example 5, N-(1-benzofuran-2-yl(2-fluoro-6-methylphenyl)methyl)-3,4-dihydro-2H-1,5-benzodioxepine-7-sulfonamide]
22	10	CSc1ccccc1C(NS(=O)(=O)c1ccc2c(c1)OCCCO2)c1cc2cccnc2s1 (racemic) [Example 48, N-((2-(methylsulfanyl)phenyl)(thieno[2,3-b]pyridin-2-yl)methyl)-3,4-dihydro-2H-1,5-benzodioxepine-7-sulfonamide]
24	48	COc1ccccc1[C@@H](NS(=O)(=O)c1ccc2c(c1)OCCCO2)c1nc2cccnc2s1 (single isomer, unassigned) [Example 67 Peak #2]
26	21	C[C@](O)(c1ccnc(-c2cccc3cc([C@@H](NS(=O)(=O)c4ccc5c(c4)OCCCO5)c4ccccc4)sc23)c1)C(F)(F)F (racemic) [Example 70, N-(phenyl(7-(4-(2,2,2-trifluoro-1-hydroxy-1-methylethyl)-2-pyridinyl)-1-benzothiophen-2-yl)methyl)-3,4-dihydro-2H-1,5-benzodioxepine-7-sulfonamide]
> 50000	4800	CCc1ccccc1[C@H](NS(=O)(=O)c1ccc2c(c1)OCCCO2)c1cc2ccccc2o1 (single isomer, unassigned) [Example 6 Peak #1]
2500	2300	O=S(=O)(NC(c1ccccc1)c1cc2ncccc2s1)c1ccc2c(c1)OCCCO2 (racemic) [Example 61, N-(phenyl(thieno[3,2-b]pyridin-2-yl)methyl)-3,4-dihydro-2H-1,5-benzodioxepine-7-sulfonamide]
> 20000	1300	CCc1ccccc1[C@H](NS(=O)(=O)c1ccc2c(c1)OCCCO2)c1cc2ccccc2s1 (single isomer, unassigned) [Example 37 Peak #1]
440	1800	Cc1cc(F)ccc1C(NS(=O)(=O)c1ccc2c(c1)OCCCO2)c1cc2ccccc2o1 (racemic) [Example 3, N-(1-benzofuran-2-yl(4-fluoro-2-methylphenyl)methyl)-3,4-dihydro-2H-1,5-benzodioxepine-7-sulfonamide]
29	6	CSc1ccccc1C(NS(=O)(=O)c1ccc2c(c1)OCCCO2)c1nc2ccccc2s1 (racemic) [Example 52, N-(1,3-benzothiazol-2-yl(2-(methylsulfanyl)phenyl)methyl)-3,4-dihydro-2H-1,5-benzodioxepine-7-sulfonamide]

The next lines start with the compound.

Structure (SMILES)	EC50 [1] [nM]	IC50 [2] [nM]
COc1ccccc1C(NS(=O)(=O)c1ccc2c(c1)OCCCO2)c1cc2cccnc2s1 (racemic) [Example 47, N-((2-methoxyphenyl)(thieno[2,3-b]pyridin-2-yl)methyl)-3,4-dihydro-2H-1,5-benzodioxepine-7-sulfonamide]	59	27
O=S(=O)(NC(c1cc2ccccc2o1)c1ccccc1Br)c1ccc2c(c1)OCCCO2 (racemic) [Example 22, N-(1-benzofuran-2-yl(2-bromophenyl)methyl)-3,4-dihydro-2H-1,5-benzodioxepine-7-sulfonamide]	58	150
O=S(=O)(NC(c1nc2cccnc2s1)c1ccccc1Cl)c1ccc2c(c1)OCCCO2 (racemic) [Example 68, N-((2-chlorophenyl)([1,3]thiazolo[5,4-b]pyridin-2-yl)methyl)-3,4-dihydro-2H-1,5-benzodioxepine-7-sulfonamide]	63	54
COc1ccccc1[C@@H](NS(=O)(=O)c1ccc2c(c1)OCCCO2)c1cc2ccccc2o1 (single isomer, unassigned) [Example 17 Peak #2]	52	52
O=S(=O)(NC(c1ccccc1)c1cc2ccncc2s1)c1ccc2c(c1)OCCCO2 (racemic) [Example 60, N-(phenyl(thieno[2,3-c]pyridin-2-yl)methyl)-3,4-dihydro-2H-1,5-benzodioxepine-7-sulfonamide]	570	360
O=S(=O)(NC(c1ccccc1)c1nc2ccccc2o1)c1ccc2c(c1)OCCCO2 (racemic) [Example 54, N-(1,3-benzoxazol-2-yl(phenyl)methyl)-3,4-dihydro-2H-1,5-benzo dioxepine-7-sulfonamide]	750	1100
O=S(=O)(NC(c1ccccc1)c1cc2ccccc2s1)c1ccc2c(c1)OCCCO2 (racemic) [Example 57, N-(1-benzothiophen-2-yl(phenyl)methyl)-3,4-dihydro-2H-1,5-benzodioxepine-7-sulfonamide]	110	310
O=S(=O)(NC(c1ccccc1)c1ccc2ccccc2n1)c1ccc2c(c1)OCCCO2 (racemic) [Example 56, N-(phenyl(2-quinolinyl)methyl)-3,4-dihydro-2H-1,5-benzodioxepine-7-sulfonamide]	720	1400
CSc1ccccc1[C@H](NS(=O)(=O)c1ccc2c(c1)OCCCO2)c1cc2ccncc2s1 (single isomer, unassigned) [Example 64 Peak #1]	180	430
CSc1ccccc1C(NS(=O)(=O)c1ccc2c(c1)OCCO2)c1cc2ccccc2s1 (racemic) [Example 75, N-(1-benzothiophen-2-yl(2-(methylsulfanyl)phenyl)methyl)-2,3-dihydro-1,4-benzodioxine-6-sulfonamide]	340	950
O=S(=O)(NC(c1cc2ccccc2o1)c1ccncc1Cl)c1ccc2c(c1)OCCCO2 (racemic) [Example 28, N-(1-benzofuran-2-yl(3-chloro-4-pyridinyl)methyl)-3,4-dihydro-2H-1,5-benzodioxepine-7-sulfonamide]	1600	
O=S(=O)(NC(c1ccsc1)c1cc2ccccc2o1)c1ccc2c(c1)OCCCO2 (racemic) [Example 32, N-(1-benzofuran-2-yl(3-thiophenyl)methyl)-3,4-dihydro-2H-1,5-benzodioxepine-7-sulfonamide]	1400	
O=S(=O)(NC(c1cc2ccccc2o1)c1cccnc1Cl)c1ccc2c(c1)OCCCO2 (racemic) [Example 27, N-(1-benzofuran-2-yl(2-chloro-3-pyridinyl)methyl)-3,4-dihydro-2H-1,5-benzodioxepine-7-sulfonamide]	1200	
